Assay results: ChEMBL document CHEMBL1143513, “Structure-activity relationships for 2-anilino-6-phenylpyrido[2,3-d]pyrimidin-7(8H)-ones as inhibitors of the cellular checkpoint kinase Wee1” (Bioorg Med Chem Lett, 2005)
pIC50: −log10 of the molar value.

Experiments:
Wee1-like protein kinase = Wee1-like protein kinase (Homo sapiens, UniProt P30291); assay: Inhibition of checkpoint kinase Wee1
[1] = Inhibition of c-Src tyrosine kinase
[2] = Inhibition of Platelet-derived growth factor receptor
[3] = biological target: Fibroblast growth factor receptor (Homo sapiens, UniProt P22607+P11362+P22455+P21802); assay: Inhibition of Fibroblast growth factor receptor; format: protein assay

Wee1-like protein kinase, sequence (P30291 whole entry): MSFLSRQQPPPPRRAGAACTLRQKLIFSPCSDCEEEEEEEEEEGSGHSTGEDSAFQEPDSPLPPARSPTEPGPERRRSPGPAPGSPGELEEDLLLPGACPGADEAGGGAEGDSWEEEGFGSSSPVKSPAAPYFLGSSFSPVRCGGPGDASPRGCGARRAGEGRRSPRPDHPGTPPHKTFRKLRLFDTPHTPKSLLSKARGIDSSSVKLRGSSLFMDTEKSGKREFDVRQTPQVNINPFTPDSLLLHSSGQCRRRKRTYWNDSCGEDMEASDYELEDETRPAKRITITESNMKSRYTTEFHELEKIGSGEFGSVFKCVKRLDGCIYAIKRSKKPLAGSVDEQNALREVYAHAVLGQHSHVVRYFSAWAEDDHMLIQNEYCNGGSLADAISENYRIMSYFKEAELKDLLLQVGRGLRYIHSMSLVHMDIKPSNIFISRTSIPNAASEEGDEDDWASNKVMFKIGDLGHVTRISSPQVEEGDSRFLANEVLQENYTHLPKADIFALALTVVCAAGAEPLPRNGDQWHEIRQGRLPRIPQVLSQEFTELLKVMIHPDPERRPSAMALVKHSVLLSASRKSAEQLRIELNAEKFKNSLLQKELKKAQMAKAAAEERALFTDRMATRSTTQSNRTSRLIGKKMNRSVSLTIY

`CC(=O)Nc1cc(Cl)c(-c2cc3cnc(Nc4ccccc4)nc3n(C)c2=O)c(Cl)c1` gave a pIC50 (Wee1-like protein kinase) of 5.44 and a pIC50 [1] of 5.82.

Work on `Cc1c(O)cc(O)c(C)c1-c1cc2cnc(Nc3ccccc3)nc2n(C)c1=O` yielded a pIC50 (Wee1-like protein kinase) of 6.00 and a pIC50 [1] of 6.96.

In the case of `Cn1c(=O)c(-c2c(Cl)cccc2Cl)cc2cnc(Nc3ccc(CCCC4N=NN=N4)cc3)nc21`, the pIC50 (Wee1-like protein kinase) was 7.16 and the pIC50 [1] was 7.60.

Work on `Cn1c(=O)c(-c2c(Cl)cccc2Cl)cc2cnc(Nc3ccc(CC(N)=O)cc3)nc21` yielded a pIC50 (Wee1-like protein kinase) of 6.92 and a pIC50 [1] of 7.89.

Molecule `CN(C)CCOC(=O)CCCc1ccc(Nc2ncc3cc(-c4c(Cl)cccc4Cl)c(=O)n(C)c3n2)cc1` has a pIC50 (Wee1-like protein kinase) of 6.91 and a pIC50 [1] of 8.15.

With `Cn1c(=O)c(-c2c(Cl)ccc(C(N)=O)c2Cl)cc2cnc(Nc3ccccc3)nc21` the pIC50 (Wee1-like protein kinase) was 5.07 and the pIC50 [1] was 6.89.

For `Cn1c(=O)c(-c2c(Cl)cc(O)cc2Cl)cc2cnc(Nc3ccccc3)nc21`, the pIC50 (Wee1-like protein kinase) was 6.66 and the pIC50 [1] was 7.14.

With `Cn1c(=O)c(-c2c(Cl)ccc(CO)c2Cl)cc2cnc(Nc3ccccc3)nc21` the pIC50 (Wee1-like protein kinase) was 5.46 and the pIC50 [1] was 7.41.

For `Cc1cccc(Br)c1-c1cc2cnc(Nc3ccccc3)nc2n(C)c1=O`, the pIC50 (Wee1-like protein kinase) was 5.35 and the pIC50 [1] was 7.24.

In the case of `COc1cccc(O)c1-c1cc2cnc(Nc3ccccc3)nc2n(C)c1=O`, the pIC50 (Wee1-like protein kinase) was 4.96 and the pIC50 [1] was 7.30.

`Cn1c(=O)c(-c2c(Cl)cccc2Cl)cc2cnc(Nc3ccc(CCCCC(N)=O)cc3)nc21` showed a pIC50 (Wee1-like protein kinase) of 6.59 and a pIC50 [1] of 7.55.

Molecule `COc1ccc(Cl)c(-c2cc3cnc(Nc4ccccc4)nc3n(C)c2=O)c1Cl` has a pIC50 (Wee1-like protein kinase) of less than 4.30 and a pIC50 [1] of 6.27.

With `COc1cc(C)c(-c2cc3cnc(Nc4ccccc4)nc3n(C)c2=O)c(C)c1` the pIC50 (Wee1-like protein kinase) was less than 4.30 and the pIC50 [1] was 6.60.

Work on `COc1cccc(OC)c1-c1cc2cnc(Nc3ccccc3)nc2n(C)c1=O` yielded a pIC50 (Wee1-like protein kinase) of less than 4.30 and a pIC50 [1] of 6.01.

Work on `CC(=O)Nc1ccc(Cl)c(-c2cc3cnc(Nc4ccccc4)nc3n(C)c2=O)c1Cl` yielded a pIC50 (Wee1-like protein kinase) of less than 4.30 and a pIC50 [1] of 6.11.

With `Cc1cccc(C)c1-c1c(C)c2cnc(Nc3ccccc3)nc2n(C)c1=O` the pIC50 (Wee1-like protein kinase) was 5.92 and the pIC50 [1] was 4.82.

`Cc1cccc(Cl)c1-c1cc2cnc(Nc3ccccc3)nc2n(C)c1=O` gave a pIC50 (Wee1-like protein kinase) of 5.72 and a pIC50 [1] of 7.92.

Molecule `CCN(CC)CCOc1ccc(Nc2ncc3c(C)c(-c4c(C)cccc4C)c(=O)n(C)c3n2)cc1` has a pIC50 (Wee1-like protein kinase) of 6.27 and a pIC50 [1] of 6.44.

For `CCN(CC)CCOc1ccc(Nc2ncc3c(C)c(-c4ccccc4Cl)c(=O)n(C)c3n2)cc1`, the pIC50 (Wee1-like protein kinase) was 6.26 and the pIC50 [1] was less than 4.30.

Molecule `CCN(CC)CCOc1ccc(Nc2ncc3cc(-c4c(C)cccc4C)c(=O)n(C)c3n2)cc1` has a pIC50 (Wee1-like protein kinase) of 6.00 and a pIC50 [1] of 7.64.

Work on `Cn1c(=O)c(-c2c(Cl)ccc(O)c2Cl)cc2cnc(Nc3ccccc3)nc21` yielded a pIC50 (Wee1-like protein kinase) of 7.13 and a pIC50 [1] of 8.05.

Work on `COc1cccc(Cl)c1-c1cc2cnc(Nc3ccccc3)nc2n(C)c1=O` yielded a pIC50 (Wee1-like protein kinase) of 5.47 and a pIC50 [1] of 6.92.

With `Cn1c(=O)c(-c2c(Cl)cccc2Cl)cc2cnc(Nc3ccc(OCCCC(=O)O)cc3)nc21` the pIC50 (Wee1-like protein kinase) was 7.07 and the pIC50 [1] was 8.40.

`Cn1c(=O)c(-c2c(Cl)cc(O)cc2Cl)cc2cnc(Nc3ccc(OCCCC(=O)O)cc3)nc21` showed a pIC50 (Wee1-like protein kinase) of 7.40 and a pIC50 [1] of 8.22.

In the case of `CCN(CC)CCOc1ccc(Nc2ncc3cc(-c4c(Cl)ccc(O)c4Cl)c(=O)n(C)c3n2)cc1`, the pIC50 (Wee1-like protein kinase) was 6.82 and the pIC50 [1] was 8.22.

`Cn1c(=O)c(-c2c(Cl)ccc(N)c2Cl)cc2cnc(Nc3ccccc3)nc21` gave a pIC50 (Wee1-like protein kinase) of 5.59 and a pIC50 [1] of 7.05.

In the case of `Cn1c(=O)c(-c2c(F)cccc2Cl)cc2cnc(Nc3ccccc3)nc21`, the pIC50 (Wee1-like protein kinase) was 5.62 and the pIC50 [1] was 7.37.

`Cn1c(=O)c(-c2c(Cl)ccc(CN)c2Cl)cc2cnc(Nc3ccccc3)nc21` showed a pIC50 (Wee1-like protein kinase) of 4.51 and a pIC50 [1] of 7.21.

`Cn1c(=O)c(-c2c(C(F)(F)F)cccc2C(F)(F)F)cc2cnc(Nc3ccccc3)nc21` showed a pIC50 (Wee1-like protein kinase) of 4.39 and a pIC50 [1] of 5.09.

Molecule `Cn1c(=O)c(-c2c(Cl)cc(N)cc2Cl)cc2cnc(Nc3ccccc3)nc21` has a pIC50 (Wee1-like protein kinase) of 5.43 and a pIC50 [1] of 6.57.

In the case of `Cn1c(=O)c(-c2c(Cl)ccc(C(=O)O)c2Cl)cc2cnc(Nc3ccccc3)nc21`, the pIC50 (Wee1-like protein kinase) was 5.49 and the pIC50 [1] was 6.55.

For `COc1cc(OC)cc(-c2cc3cnc(N)nc3nc2NC(=O)NC(C)(C)C)c1`, the pIC50 [2] was less than 4.30.

For `Cn1c(=O)c(-c2c(Cl)cccc2Cl)cc2cnc(Nc3ccccc3)nc21`, the pIC50 (Wee1-like protein kinase) was 5.59 and the pIC50 [1] was 7.62.

In the case of `Cc1c(-c2ccccc2)c(=O)n(C)c2nc(Nc3ccccc3)ncc12`, the pIC50 (Wee1-like protein kinase) was less than 4.30 and the pIC50 [1] was less than 4.30.

For `COc1cc(OC)c(C)c(-c2cc3cnc(Nc4ccccc4)nc3n(C)c2=O)c1C`, the pIC50 (Wee1-like protein kinase) was 4.48 and the pIC50 [1] was 4.41.

With `Cc1cccc(C)c1-c1cc2cnc(Nc3ccccc3)nc2n(C)c1=O` the pIC50 (Wee1-like protein kinase) was 6.00 and the pIC50 [1] was 7.85.

For `Cn1c(=O)c(-c2c(Cl)ccc(Cl)c2Cl)cc2cnc(Nc3ccccc3)nc21`, the pIC50 (Wee1-like protein kinase) was less than 4.30 and the pIC50 [1] was 6.57.

Molecule `Cn1c(=O)c(-c2c(O)cccc2O)cc2cnc(Nc3ccccc3)nc21` has a pIC50 (Wee1-like protein kinase) of 4.57 and a pIC50 [1] of 6.14.

`COc1cc(Cl)c(-c2cc3cnc(Nc4ccccc4)nc3n(C)c2=O)c(Cl)c1` showed a pIC50 (Wee1-like protein kinase) of less than 4.30 and a pIC50 [1] of 5.19.

Work on `Cc1ccc(Cl)c(-c2cc3cnc(Nc4ccccc4)nc3n(C)c2=O)c1Cl` yielded a pIC50 (Wee1-like protein kinase) of 4.30 and a pIC50 [1] of 5.55.

`Cn1c(=O)c(-c2c(Cl)cccc2C(F)(F)F)cc2cnc(Nc3ccccc3)nc21` showed a pIC50 (Wee1-like protein kinase) of less than 4.30 and a pIC50 [1] of 6.68.

Molecule `Cc1c(-c2ccccc2Cl)c(=O)n(C)c2nc(Nc3ccccc3)ncc12` has a pIC50 (Wee1-like protein kinase) of 6.39 and a pIC50 [1] of less than 4.30.

With `Cn1c(=O)c(-c2c(Cl)c(O)cc(O)c2Cl)cc2cnc(Nc3ccccc3)nc21` the pIC50 (Wee1-like protein kinase) was 6.85 and the pIC50 [1] was 7.96.

`COc1cc(OC)c(Cl)c(-c2cc3cnc(Nc4ccccc4)nc3n(C)c2=O)c1Cl` showed a pIC50 (Wee1-like protein kinase) of less than 4.30 and a pIC50 [1] of less than 4.30.

With `Cn1c(=O)c(-c2c(Cl)cc(Cl)cc2Cl)cc2cnc(Nc3ccccc3)nc21` the pIC50 (Wee1-like protein kinase) was 5.07 and the pIC50 [1] was 6.48.

For `Cn1c(=O)c(-c2c(Br)cccc2Br)cc2cnc(Nc3ccccc3)nc21`, the pIC50 (Wee1-like protein kinase) was 6.39 and the pIC50 [1] was 7.33.

Work on `Cn1c(=O)c(-c2c(Cl)cccc2Cl)cc2cnc(Nc3ccc(CCCC(=O)OCCN4CCCCC4)cc3)nc21` yielded a pIC50 (Wee1-like protein kinase) of 6.85 and a pIC50 [1] of 7.96.

Molecule `Cn1c(=O)c(-c2c(Cl)cccc2Cl)cc2cnc(Nc3ccc(CCCC(=O)OCCN4CCOCC4)cc3)nc21` has a pIC50 (Wee1-like protein kinase) of 7.02 and a pIC50 [1] of 8.40.

With `Cn1c(=O)c(-c2c(Cl)ccc(O)c2Cl)cc2cnc(Nc3ccc(OCCCC(=O)O)cc3)nc21` the pIC50 (Wee1-like protein kinase) was 7.40 and the pIC50 [1] was 7.00.

With `Cn1c(=O)c(-c2c(Cl)cccc2Cl)cc2cnc(Nc3ccc(OCC(N)=O)cc3)nc21` the pIC50 (Wee1-like protein kinase) was 6.60 and the pIC50 [1] was 7.85.

In the case of `Cc1cc(O)cc(C)c1-c1cc2cnc(Nc3ccccc3)nc2n(C)c1=O`, the pIC50 (Wee1-like protein kinase) was 6.24 and the pIC50 [1] was 7.77.

Work on `Cn1c(=O)c(-c2c(F)cccc2F)cc2cnc(Nc3ccccc3)nc21` yielded a pIC50 (Wee1-like protein kinase) of 5.01 and a pIC50 [1] of 7.18.

`COc1cc(OC)cc(-c2cc3cnc(NCCCN4CCOCC4)nc3nc2NC(=O)NC(C)(C)C)c1` gave an IC50 [3] of 30 nM and a pIC50 [1] of less than 4.30.

With `Cn1c(=O)c(-c2c(Cl)cccc2Cl)cc2cnc(Nc3ccc(CCC(N)=O)cc3)nc21` the pIC50 (Wee1-like protein kinase) was 6.72 and the pIC50 [1] was 7.52.

In the case of `Cn1c(=O)c(-c2c(O)cccc2Cl)cc2cnc(Nc3ccccc3)nc21`, the pIC50 (Wee1-like protein kinase) was 5.82 and the pIC50 [1] was 7.66.

Work on `Cn1c(=O)c(-c2c(Cl)cccc2Cl)cc2cnc(Nc3ccc(CC(N)C(=O)O)cc3)nc21` (stereo not given) yielded a pIC50 (Wee1-like protein kinase) of 7.05 and a pIC50 [1] of 8.05.

`CCN(CC)CCOc1ccc(Nc2ncc3cc(-c4c(Cl)cc(O)cc4Cl)c(=O)n(C)c3n2)cc1` showed a pIC50 (Wee1-like protein kinase) of 7.10 and a pIC50 [1] of 8.10.

`CC(C)(C)NC(=O)Nc1nc2nc(N)ncc2cc1-c1c(Cl)cccc1Cl` showed a pIC50 [2] of 5.96.

With `CCN(CC)CCOc1ccc(Nc2ncc3cc(-c4c(Cl)cccc4Cl)c(=O)n(C)c3n2)cc1` [PD-0166285] the pIC50 [2] was 4.10.
